Data set [1] concerns the target T1, Sodium/glucose cotransporter 1 (Homo sapiens, UniProt P13866).
T1 sequence (P13866 whole entry): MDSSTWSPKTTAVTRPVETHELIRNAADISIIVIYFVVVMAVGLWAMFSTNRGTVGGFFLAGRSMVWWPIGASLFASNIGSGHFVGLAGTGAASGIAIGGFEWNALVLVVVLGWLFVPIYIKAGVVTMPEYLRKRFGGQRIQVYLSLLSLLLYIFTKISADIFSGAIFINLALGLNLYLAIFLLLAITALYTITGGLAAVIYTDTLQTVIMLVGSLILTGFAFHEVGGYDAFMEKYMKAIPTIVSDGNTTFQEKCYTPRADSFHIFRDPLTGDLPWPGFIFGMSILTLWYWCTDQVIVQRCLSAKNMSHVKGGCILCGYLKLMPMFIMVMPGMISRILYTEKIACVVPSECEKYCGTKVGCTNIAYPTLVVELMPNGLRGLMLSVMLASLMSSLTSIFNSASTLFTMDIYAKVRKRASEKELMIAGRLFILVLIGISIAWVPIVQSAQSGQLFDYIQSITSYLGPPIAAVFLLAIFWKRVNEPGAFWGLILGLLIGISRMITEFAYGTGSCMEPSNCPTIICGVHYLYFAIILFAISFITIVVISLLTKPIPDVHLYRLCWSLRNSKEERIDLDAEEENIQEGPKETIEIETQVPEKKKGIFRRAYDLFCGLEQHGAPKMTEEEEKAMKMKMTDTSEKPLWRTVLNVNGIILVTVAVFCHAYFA
The data set can be described thus: Inhibition of human SGLT1 expressed in CHOK1 cells assessed as inhibition of [14C]-AMG uptake after 3 hrs by microbeta scintillation counting analysis. The format is cell-based, CHO-K1.

The target of data set [2] is T2, Sodium/glucose cotransporter 2 (Homo sapiens, UniProt P31639).
T2 sequence (P31639 whole entry): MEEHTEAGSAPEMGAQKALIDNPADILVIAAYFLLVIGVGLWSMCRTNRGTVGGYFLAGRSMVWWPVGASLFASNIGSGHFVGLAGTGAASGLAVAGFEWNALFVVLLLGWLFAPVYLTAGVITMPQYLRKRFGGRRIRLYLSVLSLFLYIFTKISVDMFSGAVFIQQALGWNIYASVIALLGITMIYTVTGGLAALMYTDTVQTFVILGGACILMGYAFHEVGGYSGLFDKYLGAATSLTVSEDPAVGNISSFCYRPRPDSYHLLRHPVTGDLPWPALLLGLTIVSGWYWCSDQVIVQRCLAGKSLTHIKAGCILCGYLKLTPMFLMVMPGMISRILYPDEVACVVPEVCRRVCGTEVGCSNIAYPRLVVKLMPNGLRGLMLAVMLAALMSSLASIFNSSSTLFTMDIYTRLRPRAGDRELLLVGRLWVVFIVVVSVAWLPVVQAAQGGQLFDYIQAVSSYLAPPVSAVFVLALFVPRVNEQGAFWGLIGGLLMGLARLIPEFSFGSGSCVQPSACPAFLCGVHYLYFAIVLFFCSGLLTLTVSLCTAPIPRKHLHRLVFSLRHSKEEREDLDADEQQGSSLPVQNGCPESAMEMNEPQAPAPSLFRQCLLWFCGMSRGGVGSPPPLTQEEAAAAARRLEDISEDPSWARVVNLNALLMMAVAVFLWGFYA
The data set can be described thus: Inhibition of human SGLT2 expressed in CHOK1 cells assessed as inhibition of [14C]-AMG uptake after 3 hrs by microbeta scintillation counting analysis. It counts as cell-based, CHO-K1.

Another data set has as its target T3, Cytochrome P450 1A2 (Homo sapiens, UniProt P05177).
T3 sequence (P05177 whole entry): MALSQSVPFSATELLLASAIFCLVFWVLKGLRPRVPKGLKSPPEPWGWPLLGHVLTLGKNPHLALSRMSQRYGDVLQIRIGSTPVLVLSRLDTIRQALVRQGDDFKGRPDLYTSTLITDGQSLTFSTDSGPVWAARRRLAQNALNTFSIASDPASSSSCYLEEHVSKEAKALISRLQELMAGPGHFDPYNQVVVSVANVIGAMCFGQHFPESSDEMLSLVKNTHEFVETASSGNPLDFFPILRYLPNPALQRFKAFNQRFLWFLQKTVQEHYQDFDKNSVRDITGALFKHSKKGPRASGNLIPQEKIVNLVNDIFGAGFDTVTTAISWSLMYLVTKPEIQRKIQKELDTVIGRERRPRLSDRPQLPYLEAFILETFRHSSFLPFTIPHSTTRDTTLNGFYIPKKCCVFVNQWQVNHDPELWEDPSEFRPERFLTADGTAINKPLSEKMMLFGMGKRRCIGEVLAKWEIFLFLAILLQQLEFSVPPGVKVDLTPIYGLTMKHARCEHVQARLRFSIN
The experiment in a line: Inhibition of CYP1A2 (unknown origin). The format is ADME.

For another data set, the target named is T4, Cytochrome P450 2B6 (Homo sapiens, UniProt P20813).
T4 sequence (P20813 whole entry): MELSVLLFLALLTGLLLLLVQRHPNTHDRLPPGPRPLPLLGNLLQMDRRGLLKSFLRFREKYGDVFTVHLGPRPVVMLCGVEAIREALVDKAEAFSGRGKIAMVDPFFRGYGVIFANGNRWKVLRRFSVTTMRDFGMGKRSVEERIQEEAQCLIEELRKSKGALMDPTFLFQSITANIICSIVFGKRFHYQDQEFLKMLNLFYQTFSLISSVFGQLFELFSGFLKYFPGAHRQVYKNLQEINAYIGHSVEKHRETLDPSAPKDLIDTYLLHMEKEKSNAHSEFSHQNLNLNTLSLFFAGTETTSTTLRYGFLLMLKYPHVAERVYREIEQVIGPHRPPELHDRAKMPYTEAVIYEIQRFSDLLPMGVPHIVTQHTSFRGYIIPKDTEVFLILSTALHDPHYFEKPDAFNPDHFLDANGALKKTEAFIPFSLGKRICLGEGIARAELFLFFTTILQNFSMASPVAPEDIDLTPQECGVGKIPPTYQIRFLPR
The data set can be described thus: Inhibition of CYP2B6 (unknown origin). The format is ADME.

The next data set has as its target Cytochrome P450 2C9 (Homo sapiens, UniProt P11712). The experiment in a line: Inhibition of CYP2C9 (unknown origin). The format is ADME.
The target in a further data set is Cytochrome P450 2C19 (Homo sapiens, UniProt P33261). The experiment in a line: Inhibition of CYP2C19 (unknown origin). It counts as ADME.
Chain of Cytochrome P450 2C19 (P33261 whole entry): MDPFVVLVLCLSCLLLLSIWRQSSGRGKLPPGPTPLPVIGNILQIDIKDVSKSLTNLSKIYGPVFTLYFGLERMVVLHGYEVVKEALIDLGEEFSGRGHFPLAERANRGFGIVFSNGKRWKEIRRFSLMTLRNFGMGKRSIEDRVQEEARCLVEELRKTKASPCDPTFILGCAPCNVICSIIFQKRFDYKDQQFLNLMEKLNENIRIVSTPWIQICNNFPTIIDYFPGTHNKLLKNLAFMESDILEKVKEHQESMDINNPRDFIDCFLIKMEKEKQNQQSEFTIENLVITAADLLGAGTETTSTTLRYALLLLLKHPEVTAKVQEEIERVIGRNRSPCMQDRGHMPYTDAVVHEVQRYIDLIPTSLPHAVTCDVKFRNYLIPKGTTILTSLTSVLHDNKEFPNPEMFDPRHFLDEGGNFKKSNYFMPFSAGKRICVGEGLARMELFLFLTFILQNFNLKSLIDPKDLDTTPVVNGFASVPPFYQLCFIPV
The target of a further data set is Cytochrome P450 2D6 (Homo sapiens, UniProt P10635). The data set can be described thus: Inhibition of CYP2D6 (unknown origin). The format is ADME.
Chain of Cytochrome P450 2D6 (P10635 whole entry): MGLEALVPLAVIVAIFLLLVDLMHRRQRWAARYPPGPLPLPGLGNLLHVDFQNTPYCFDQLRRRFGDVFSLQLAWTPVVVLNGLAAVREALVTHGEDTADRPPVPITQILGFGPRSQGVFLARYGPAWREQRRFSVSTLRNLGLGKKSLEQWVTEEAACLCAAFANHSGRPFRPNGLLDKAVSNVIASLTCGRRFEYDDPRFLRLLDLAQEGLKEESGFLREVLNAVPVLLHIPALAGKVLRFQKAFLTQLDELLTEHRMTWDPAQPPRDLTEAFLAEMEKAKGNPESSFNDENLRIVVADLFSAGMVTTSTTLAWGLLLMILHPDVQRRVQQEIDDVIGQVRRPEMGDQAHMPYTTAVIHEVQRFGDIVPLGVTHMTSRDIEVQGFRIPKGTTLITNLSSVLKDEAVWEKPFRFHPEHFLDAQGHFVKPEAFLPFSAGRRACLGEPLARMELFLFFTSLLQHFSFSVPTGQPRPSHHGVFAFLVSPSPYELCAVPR
For another data set, the target named is Cytochrome P450 3A4 (Homo sapiens, UniProt P08684). The data set can be described thus: Inhibition of CYP3A4 (unknown origin). It counts as ADME.
Chain of Cytochrome P450 3A4 (P08684 whole entry): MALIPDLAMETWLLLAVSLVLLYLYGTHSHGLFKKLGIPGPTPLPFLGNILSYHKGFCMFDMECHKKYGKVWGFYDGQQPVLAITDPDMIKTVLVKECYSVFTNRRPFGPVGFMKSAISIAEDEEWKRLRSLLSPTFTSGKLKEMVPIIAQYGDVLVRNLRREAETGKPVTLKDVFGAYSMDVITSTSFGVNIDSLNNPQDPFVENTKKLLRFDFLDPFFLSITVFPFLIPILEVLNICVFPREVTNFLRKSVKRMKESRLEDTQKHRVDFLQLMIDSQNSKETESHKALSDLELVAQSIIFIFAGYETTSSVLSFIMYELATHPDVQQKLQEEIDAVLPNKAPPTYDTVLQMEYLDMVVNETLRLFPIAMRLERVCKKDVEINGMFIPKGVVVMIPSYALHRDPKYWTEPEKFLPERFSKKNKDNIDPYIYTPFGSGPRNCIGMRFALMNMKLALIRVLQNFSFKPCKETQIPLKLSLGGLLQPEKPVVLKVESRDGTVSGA
Data set [3] in a line: Intrinsic clearance in human liver microsomes. The format is ADME. Particulars: read-out: CLH. Background: Liver microsomes are vesicles of endoplasmic reticulum, rich in cytochrome P450 enzymes.
The nature of data set [4]: Intrinsic clearance in rat liver microsomes. The format is ADME. Particulars: read-out: CLH.
Data set [5] is described as follows: Oral bioavailability in rat. It counts as ADME, organism-based. Particulars: in vivo.
Data set [6] can be described thus: Half life in rat. The format is ADME, organism-based. Particulars: in vivo.

Usually IC50 stands for the concentration at which inhibition is half-maximal. The term bioavailability denotes the share of a dose that reaches the circulation, judged against a reference dose that is usually intravenous. As usually defined, the half-life is the time in which the quantity being followed falls by half.

Chain of Cytochrome P450 2C9 (P11712 whole entry): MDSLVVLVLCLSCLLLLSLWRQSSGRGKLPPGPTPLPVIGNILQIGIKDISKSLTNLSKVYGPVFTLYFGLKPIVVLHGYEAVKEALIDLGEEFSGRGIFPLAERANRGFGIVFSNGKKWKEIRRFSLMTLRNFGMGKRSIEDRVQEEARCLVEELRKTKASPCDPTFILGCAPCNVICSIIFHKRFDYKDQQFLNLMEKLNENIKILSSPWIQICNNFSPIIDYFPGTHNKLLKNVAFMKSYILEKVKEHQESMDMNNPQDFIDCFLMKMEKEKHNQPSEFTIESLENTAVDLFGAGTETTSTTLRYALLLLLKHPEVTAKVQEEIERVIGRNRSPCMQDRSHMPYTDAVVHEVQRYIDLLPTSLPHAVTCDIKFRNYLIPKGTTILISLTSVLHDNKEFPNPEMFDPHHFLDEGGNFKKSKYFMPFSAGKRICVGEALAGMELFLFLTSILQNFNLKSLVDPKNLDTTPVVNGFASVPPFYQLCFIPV

As to `O=c1n(Cc2cc([C@@H]3O[C@H](CO)[C@@H](O)[C@H](O)[C@H]3O)ccc2Cl)nc2ccccn12`, in data set [1], the IC50 was above 90 µM.
With `O=c1n(Cc2cc([C@@H]3O[C@H](CO)[C@@H](O)[C@H](O)[C@H]3O)ccc2Cl)nc2ccc(Cl)cn12`, the results for the IC50 in data set [2] and in data set [1] were 0.08 µM and above 90 µM, respectively.
The matching figures for `O=c1n(Cc2cc([C@@H]3O[C@H](CO)[C@@H](O)[C@H](O)[C@H]3O)ccc2Cl)nc2ccc(Br)cn12`: 0.107 µM and above 90 µM.
In the case of `Cc1ccc2nn(Cc3cc([C@@H]4O[C@H](CO)[C@@H](O)[C@H](O)[C@H]4O)ccc3Cl)c(=O)n2c1`, the IC50 is 0.12 µM in data set [2] and above 90 µM in data set [1].
On to `O=c1n(Cc2cc([C@@H]3O[C@H](CO)[C@@H](O)[C@H](O)[C@H]3O)ccc2Cl)nc2ccc(CO)cn12`, for which the IC50 in data set [2] was 0.141 µM.
In the case of `O=c1n(Cc2cc([C@@H]3O[C@H](CO)[C@@H](O)[C@H](O)[C@H]3O)ccc2Cl)nc2ccc(F)cn12`, in data set [1], the IC50 was above 90 µM.
`O=c1n(Cc2cc([C@@H]3O[C@H](CO)[C@@H](O)[C@H](O)[C@H]3O)ccc2Cl)nc2ccc(C(F)(F)F)cn12`: the IC50 in [2] is 0.762 µM.
On the same count and under the same terms, as for `O=c1n(Cc2cc([C@@H]3O[C@H](CO)[C@@H](O)[C@H](O)[C@H]3O)ccc2Cl)nc2cc(Cl)ccn12`, the figure is 0.089 µM.
As for `Cc1ccn2c(=O)n(Cc3cc([C@@H]4O[C@H](CO)[C@@H](O)[C@H](O)[C@H]4O)ccc3Cl)nc2c1`, the IC50 in data set [1] was above 90 µM.
For `O=c1n(Cc2cc([C@@H]3O[C@H](CO)[C@@H](O)[C@H](O)[C@H]3O)ccc2Cl)nc2cc(C(F)(F)F)ccn12`, the values for the IC50 in data set [2] and in data set [1] were 0.252 µM and above 90 µM, respectively.
The matching figures for `COc1ccn2c(=O)n(Cc3cc([C@@H]4O[C@H](CO)[C@@H](O)[C@H](O)[C@H]4O)ccc3Cl)nc2c1`: 5.48 µM and above 90 µM.
The matching figures for `O=c1n(Cc2cc([C@@H]3O[C@H](CO)[C@@H](O)[C@H](O)[C@H]3O)ccc2Cl)nc2cc(OCC(F)(F)F)ccn12`: 5.7 µM and above 90 µM.
The matching figures for `Cc1cccc2nn(Cc3cc([C@@H]4O[C@H](CO)[C@@H](O)[C@H](O)[C@H]4O)ccc3Cl)c(=O)n12`: 9.92 µM and above 90 µM.
On to `O=c1n(Cc2cc([C@@H]3O[C@H](CO)[C@@H](O)[C@H](O)[C@H]3O)ccc2Cl)nc2c(Cl)cccn12`, for which the values for the IC50 in data set [2] and in [1] were 9 µM and above 90 µM, respectively.
The matching figures for `O=c1n(Cc2cc([C@@H]3O[C@H](CO)[C@@H](O)[C@H](O)[C@H]3O)ccc2Cl)nc2c(F)cccn12`: 3.3 µM and above 90 µM.
Take `Cc1cc2nn(Cc3cc([C@@H]4O[C@H](CO)[C@@H](O)[C@H](O)[C@H]4O)ccc3Cl)c(=O)n2cc1Cl`: the IC50 was 0.033 µM in [2]; above 11 µM against Cytochrome P450 1A2; above 11 µM against Cytochrome P450 2B6; above 11 µM against Cytochrome P450 2C9; above 11 µM at Cytochrome P450 2C19; above 11 µM on Cytochrome P450 2D6. Besides, at Cytochrome P450 3A4, the IC50 is above 11 µM. Besides, the microsomal CLint amounted to 3.6 µL/min/mg in data set [3] and 2.8 µL/min/mg in [4].
Take `CN1C(=O)N(c2ccc(Cc3cc([C@@H]4O[C@H](CO)[C@@H](O)[C@H](O)[C@H]4O)ccc3Cl)cc2)C(C)(C)C1=O`: the IC50 in data set [2] came out at 0.248 µM; in data set [1] it was 83.1 µM.
In the case of `CCN1C(=O)CN(c2ccc(Cc3cc([C@@H]4O[C@H](CO)[C@@H](O)[C@H](O)[C@H]4O)ccc3Cl)cc2)C1=O`, the IC50 in [2] was 0.0109 µM; on Cytochrome P450 1A2, above 11 µM; against Cytochrome P450 2B6, above 11 µM; against Cytochrome P450 2C9 it was above 11 µM; against Cytochrome P450 2C19, above 11 µM; against Cytochrome P450 2D6, above 11 µM. In addition, the IC50 against Cytochrome P450 3A4 was above 11 µM. The microsomal CLint in data set [3] amounted to 1.3 µL/min/mg; in data set [4], 1.9 µL/min/mg. In addition, the bioavailability in data set [5] turned out to be 4%. In addition, in data set [6], the half-life worked out at 35 min.
Turning to `CN1C(=O)CN(c2ccc(Cc3cc([C@@H]4O[C@H](CO)[C@@H](O)[C@H](O)[C@H]4O)ccc3Cl)cc2)C1=O`, the results for the half-maximal inhibitory concentration (IC50) in data set [2] and in data set [1] were 0.489 µM and 90 µM, respectively.

Values taken from ChEMBL document CHEMBL3286323, “The design and synthesis of novel SGLT2 inhibitors: C-glycosides with benzyltriazolopyridinone and phenylhydantoin as the aglycone moieties” (Bioorg Med Chem, 2014).
